Reference: ChEMBL document CHEMBL1201862, “PubChem BioAssay data set” (2004)
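Protocol summary: plate cells (96-well), add compound at 5 concentrations, incubate 48 h, interpolate endpoints linearly. Abbreviation: GI50, concentration required for 50% inhibition of growth.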 Active and inactive are the calls of the source. Rule as the data show it: active = GI50 up to about 1.1 µM and inactive = higher.

Assays:
Assay in all cases: NCI-60 cell line screen, 48 h
[1] = test system: MDA-MB-435
[2] = test system: SF-539
[3] = test system: MDA-MB-231
[4] = test system: HL-60
[5] = test system: SK-MEL-2
[6] = test system: NCI/ADR-RES
[7] = test system: KM12
[8] = test system: COLO 205
[9] = test system: SF-268
[10] = test system: ACHN
[11] = test system: SR
[12] = test system: NCI-H460
[13] = test system: HT-29
[14] = test system: A549
[15] = test system: SN12C
[16] = test system: 786-0
[17] = test system: SK-MEL-28
[18] = test system: SW-620
[19] = test system: UACC-257
[20] = test system: HCC 2998
[21] = test system: SNB-75
[22] = test system: OVCAR-4
[23] = test system: UACC-62
[24] = test system: DU-145
[25] = test system: RXF 393
[26] = test system: HCT-116
[27] = test system: EKVX
[28] = test system: LOX IMVI
[29] = test system: SF-295
[30] = test system: K562
[31] = test system: HCT-15
[32] = test system: PC-3
[33] = test system: RPMI-8226
[34] = test system: Hs-578T
[35] = test system: OVCAR-8
[36] = test system: MCF7
[37] = test system: NCI-H23
[38] = test system: HOP-62
[39] = test system: CCRF-CEM
[40] = test system: MDA-N
[41] = test system: SK-MEL-5
[42] = test system: IGROV-1
[43] = test system: CAKI-1
[44] = test system: Malme-3M
[45] = test system: U-251
[46] = test system: SNB-19
[47] = test system: M14
[48] = test system: MOLT-4
[49] = test system: SK-OV-3
[50] = test system: NCI-H226
[51] = test system: OVCAR-5
[52] = test system: TK-10
[53] = test system: OVCAR-3
[54] = test system: UO-31
[55] = test system: HOP-92
[56] = test system: T47D
[57] = test system: NCI-H522
[58] = test system: A498

C1=CC2=CC=CC3c4nc5ccc6ccccc6c5nc4C(=C1)C23 (stereo not given)
GI50 [1]: > 100 µM (inactive) | GI50 [2]: > 100 µM (inactive) | GI50 [3]: > 100 µM (inactive) | GI50 [4]: > 100 µM (inactive) | GI50 [5]: > 100 µM (inactive) | GI50 [6]: > 100 µM (inactive) | GI50 [7]: > 100 µM (inactive) | GI50 [8]: > 100 µM (inactive) | GI50 [9]: > 100 µM (inactive) | GI50 [10]: > 100 µM (inactive) | GI50 [11]: > 100 µM (inactive) | GI50 [12]: > 100 µM (inactive) | GI50 [13]: > 100 µM (inactive) | GI50 [14]: > 100 µM (inactive) | GI50 [15]: > 100 µM (inactive) | GI50 [16]: > 100 µM (inactive) | GI50 [17]: > 100 µM (inactive) | GI50 [18]: > 100 µM (inactive) | GI50 [19]: > 100 µM (inactive) | GI50 [20]: > 100 µM (inactive) | GI50 [21]: > 100 µM (inactive) | GI50 [22]: > 100 µM (inactive) | GI50 [23]: > 100 µM (inactive) | GI50 [24]: > 100 µM (inactive) | GI50 [25]: > 100 µM (inactive) | GI50 [26]: > 100 µM (inactive) | GI50 [27]: > 100 µM (inactive) | GI50 [28]: > 100 µM (inactive) | GI50 [29]: > 100 µM (inactive) | GI50 [30]: > 100 µM (inactive) | GI50 [31]: > 100 µM | GI50 [32]: > 100 µM (inactive) | GI50 [33]: > 100 µM (inactive) | GI50 [34]: > 100 µM (inactive) | GI50 [35]: > 100 µM (inactive) | GI50 [36]: > 100 µM (inactive) | GI50 [37]: > 100 µM (inactive) | GI50 [38]: > 100 µM (inactive) | GI50 [39]: > 100 µM (inactive) | GI50 [40]: > 100 µM (inactive) | GI50 [41]: > 100 µM (inactive) | GI50 [42]: > 100 µM (inactive) | GI50 [43]: > 100 µM (inactive) | GI50 [44]: > 100 µM (inactive) | GI50 [45]: > 100 µM (inactive) | GI50 [46]: > 100 µM (inactive) | GI50 [47]: > 100 µM (inactive) | GI50 [48]: > 100 µM (inactive) | GI50 [49]: > 100 µM (inactive) | GI50 [50]: > 100 µM (inactive) | GI50 [51]: > 100 µM (inactive) | GI50 [52]: > 100 µM (inactive) | GI50 [53]: > 100 µM (inactive) | GI50 [54]: > 100 µM (inactive) | GI50 [55]: > 100 µM (inactive) | GI50 [56]: > 100 µM (inactive)

COc1ccc(C2C(=O)c3c(OC)cc(OC)cc3OC2c2cccnc2)cc1 (stereo not given)
GI50 [1]: 44.5 µM (inactive) | GI50 [2]: > 100 µM (inactive) | GI50 [3]: > 100 µM (inactive) | GI50 [5]: > 100 µM (inactive) | GI50 [6]: > 100 µM (inactive) | GI50 [7]: > 100 µM (inactive) | GI50 [8]: 70.3 µM (inactive) | GI50 [9]: > 100 µM (inactive) | GI50 [10]: > 100 µM (inactive) | GI50 [11]: 37.6 µM (inactive) | GI50 [12]: 92.7 µM (inactive) | GI50 [13]: 71.3 µM (inactive) | GI50 [14]: > 100 µM (inactive) | GI50 [15]: > 100 µM (inactive) | GI50 [57]: 35.8 µM (inactive) | GI50 [16]: > 100 µM (inactive) | GI50 [17]: > 100 µM (inactive) | GI50 [18]: > 100 µM (inactive) | GI50 [19]: > 100 µM (inactive) | GI50 [20]: > 100 µM (inactive) | GI50 [58]: > 100 µM (inactive) | GI50 [21]: 27.4 µM (inactive) | GI50 [22]: 44.2 µM (inactive) | GI50 [23]: 82.2 µM (inactive) | GI50 [24]: > 100 µM (inactive) | GI50 [25]: > 100 µM (inactive) | GI50 [26]: > 100 µM (inactive) | GI50 [27]: > 100 µM (inactive) | GI50 [28]: 61.2 µM (inactive) | GI50 [29]: 53.5 µM (inactive) | GI50 [30]: 59.6 µM (inactive) | GI50 [31]: > 100 µM | GI50 [32]: > 100 µM (inactive) | GI50 [34]: > 100 µM (inactive) | GI50 [35]: > 100 µM (inactive) | GI50 [36]: > 100 µM (inactive) | GI50 [37]: > 100 µM (inactive) | GI50 [38]: > 100 µM (inactive) | GI50 [39]: 66.2 µM (inactive) | GI50 [40]: 46.7 µM (inactive) | GI50 [41]: > 100 µM (inactive) | GI50 [42]: > 100 µM (inactive) | GI50 [43]: > 100 µM (inactive) | GI50 [44]: 67.9 µM (inactive) | GI50 [46]: > 100 µM (inactive) | GI50 [47]: > 100 µM (inactive) | GI50 [48]: 46 µM (inactive) | GI50 [49]: > 100 µM (inactive) | GI50 [50]: 43.8 µM (inactive) | GI50 [51]: > 100 µM (inactive) | GI50 [52]: > 100 µM (inactive) | GI50 [53]: > 100 µM (inactive) | GI50 [54]: 32.2 µM (inactive) | GI50 [56]: > 100 µM (inactive)
